# Source: patent US20220331303A1, “USE OF AN OREXIN 2 RECEPTOR AGONIST FOR THE TREATMENT OF EXCESSIVE SLEEPINESS” (Takeda Pharmaceutical Company Limited, priority 2019, published 2022)
# System: sleep-deprived healthy volunteers
# Assay: Karolinska Sleepiness Scale (KSS) in sleep-deprived healthy volunteers
# Type: in vivo, human
# Description: During the day before dosing on Day 1, participants were administered the KSS at scheduled timepoints. A practice MWT session was performed on Day 1 treatment period 1 (only once during the entire study) to familiarize subjects with the procedures. Study drug was administered in the clinic in the evening on Day 1 of each treatment period. Subjects underwent the MWT and KSS at specified timepoints after the start of the infusion. Subjects were required to stay awake between the MWT tests. Following completion of the IV infusion on Day 2, subjects underwent an additional MWT test. When the final MWT test and cognitive testing were completed, subjects were allowed to sleep (recovery sleep) for approximately 6 hours. PSG recording was collected during this time. Subjects were discharged from the unit after completion on Day 2 with continuing actigraphy upon discharge (to begin on Day −6 before the next treatment period). The interval between each subsequent treatment period was at least 7 days to ensure that the subject's circadian rhythm had returned to a normal cycle. Subject's vital signs, including BP, were monitored during the dosing and testing period. Blood samples for determination of Compound A plasma concentrations were collected at specified timepoints on Days 1 and 2 of each treatment period. Subjects completed the Columbia-Suicide Severity Rating Scale (C-SSRS) during screening, before study drug administration, and before discharge on Day 2 of each treatment period.
# Secondary endpoints: • PK parameters calculated from plasma concentrations of Compound A. • Scores for sleepiness on the Karolinska Sleepiness Scale (KSS).
# The secondary efficacy endpoint was sleepiness/alertness as assessed by KSS at 14, 10, 6, and 2 hours predose (approximately between 7:45 AM to 7:45 PM); 2, 2.75, 4.75, 6.75, and 8.75 hours post infusion start (approximately between mid-night to 7 AM in the morning); and at 1.75 hours post infusion end. A higher value indicates more sleepiness, a lower value indicates more alertness. Prior to infusion, there were no statistically significant differences at any time point of observation in KSS score for Compound A 44 and 112 mg treatments when compared to placebo. […] On the average, for modafinil and Compound A 44 and 112 mg, there were about 1.6 to 3.7 points increase in the KSS postdose/the infusion start, relative to that prior to dosing during the daytime. However, for placebo, the increase in the average KSS is 4.9.
# [1] = Compound A 44 mg, 1.75 HOURS POST INFUSION END
# [2] = Compound A 44 mg, 2 HOURS PREDOSE
# [3] = Compound A 44 mg, 2.75 HOURS POST INFUSION START
# [4] = Compound A 44 mg, 4.75 HOURS POST INFUSION START
# [5] = Compound A 44 mg, 6 HOURS PREDOSE
# [6] = Compound A 44 mg, 6.75 HOURS POST INFUSION START
# [7] = Compound A 44 mg, 8.75 HOURS POST INFUSION START
# [8] = Compound A 44 mg, 10 HOURS PREDOSE
# [9] = Compound A 44 mg, 14 HOURS PREDOSE
# [10] = Compound A 112 mg, 1.75 HOURS POST INFUSION END
# [11] = Compound A 112 mg, 2 HOURS PREDOSE
# [12] = Compound A 112 mg, 2.75 HOURS POST INFUSION START
# [13] = Compound A 112 mg, 4.75 HOURS POST INFUSION START
# [14] = Compound A 112 mg, 6 HOURS PREDOSE
# [15] = Compound A 112 mg, 6.75 HOURS POST INFUSION START
# [16] = Compound A 112 mg, 8.75 HOURS POST INFUSION START
# [17] = Compound A 112 mg, 10 HOURS PREDOSE
# [18] = Compound A 112 mg, 14 HOURS PREDOSE
# [19] = HD: Compound A 112 mg, 1.75 HOURS POST INFUSION END
# [20] = HD: Compound A 112 mg, 2 HOURS PREDOSE
# [21] = HD: Compound A 112 mg, 2.75 HOURS POST INFUSION START
# [22] = HD: Compound A 112 mg, 4.75 HOURS POST INFUSION START
# [23] = HD: Compound A 112 mg, 6 HOURS PREDOSE
# [24] = HD: Compound A 112 mg, 6.75 HOURS POST INFUSION START
# [25] = HD: Compound A 112 mg, 8.75 HOURS POST INFUSION START
# [26] = HD: Compound A 112 mg, 10 HOURS PREDOSE
# [27] = HD: Compound A 112 mg, 14 HOURS PREDOSE
# [28] = HD: Compound A 112 mg, DELTA: AVERAGE POST - AVERAGE PRIOR
# [29] = LD: Compound A 44 mg, 1.75 HOURS POST INFUSION END
# [30] = LD: Compound A 44 mg, 2 HOURS PREDOSE
# [31] = LD: Compound A 44 mg, 2.75 HOURS POST INFUSION START
# [32] = LD: Compound A 44 mg, 4.75 HOURS POST INFUSION START
# [33] = LD: Compound A 44 mg, 6 HOURS PREDOSE
# [34] = LD: Compound A 44 mg, 6.75 HOURS POST INFUSION START
# [35] = LD: Compound A 44 mg, 8.75 HOURS POST INFUSION START
# [36] = LD: Compound A 44 mg, 10 HOURS PREDOSE
# [37] = LD: Compound A 44 mg, 14 HOURS PREDOSE
# [38] = LD: Compound A 44 mg, DELTA: AVERAGE POST - AVERAGE PRIOR
compound,measurement,setting,value
"COC(=O)N1CCC[C@H](NS(C)(=O)=O)[C@@H]1CO[C@H]1CC[C@@H](c2ccccc2)CC1 [Compound A, methyl (2R,3S)-3-((methylsulfonyl)amino)-2-(((cis-4-phenylcyclohexyl)oxy)methyl)piperidine-1-carboxylate]","Difference between average KSS score post and prior to infusion start, LS Mean (SE)",Compound A 44 mg,3.68 (0.332)
same,KSS Max,[1],9
same,KSS Mean (SD),[1],8.4 (0.86)
same,KSS Median,[1],9.0
same,KSS Min,[1],6
same,KSS Max,[2],9
same,KSS Mean (SD),[2],4.0 (2.30)
same,KSS Median,[2],3.5
same,KSS Min,[2],1
same,KSS Max,[3],8
same,KSS Mean (SD),[3],4.8 (1.92)
same,KSS Median,[3],4.5
same,KSS Min,[3],1
same,KSS Max,[4],9
same,KSS Mean (SD),[4],6.4 (2.12)
same,KSS Median,[4],6.5
same,KSS Min,[4],2
same,KSS Max,[5],7
same,KSS Mean (SD),[5],2.8 (1.59)
same,KSS Median,[5],2.5
same,KSS Min,[5],1
same,KSS Max,[6],9
same,KSS Mean (SD),[6],7.8 (0.94)
same,KSS Median,[6],8.0
same,KSS Min,[6],6
same,KSS Max,[7],9
same,KSS Mean (SD),[7],8.1 (1.00)
same,KSS Median,[7],8.0
same,KSS Min,[7],5
same,KSS Max,[8],7
same,KSS Mean (SD),[8],2.8 (1.40)
same,KSS Median,[8],3.0
same,KSS Min,[8],1
same,KSS Max,[9],6
same,KSS Mean (SD),[9],2.8 (1.15)
same,KSS Median,[9],3.0
same,KSS Min,[9],1
same,"Difference between average KSS score post and prior to infusion start, LS Mean (SE)",Compound A 112 mg,1.64 (0.332)
same,KSS Max,[10],9
same,KSS Mean (SD),[10],8.0 (1.57)
same,KSS Median,[10],8.5
same,KSS Min,[10],3
same,KSS Max,[11],6
same,KSS Mean (SD),[11],3.4 (1.76)
same,KSS Median,[11],3.0
same,KSS Min,[11],1
same,KSS Max,[12],8
same,KSS Mean (SD),[12],3.2 (2.02)
same,KSS Median,[12],2.0
same,KSS Min,[12],1
same,KSS Max,[13],9
same,KSS Mean (SD),[13],3.8 (1.82)
same,KSS Median,[13],3.0
same,KSS Min,[13],1
same,KSS Max,[14],4
same,KSS Mean (SD),[14],2.5 (0.92)
same,KSS Median,[14],3.0
same,KSS Min,[14],1
same,KSS Max,[15],9
same,KSS Mean (SD),[15],5.2 (1.72)
same,KSS Median,[15],5.0
same,KSS Min,[15],2
same,KSS Max,[16],9
same,KSS Mean (SD),[16],6.1 (1.95)
same,KSS Median,[16],6.0
same,KSS Min,[16],3
same,KSS Max,[17],7
same,KSS Mean (SD),[17],2.5 (1.47)
same,KSS Median,[17],2.0
same,KSS Min,[17],1
same,KSS Max,[18],7
same,KSS Mean (SD),[18],3.3 (1.74)
same,KSS Median,[18],3.0
same,KSS Min,[18],1
same,KSS Sleepy/Alert LS Mean,[19],8.01
same,KSS Sleepy/Alert LS Mean Difference vs Placebo Estimate,[19],−0.14
same,KSS Sleepy/Alert LS Mean,[20],3.46
same,KSS Sleepy/Alert LS Mean Difference vs Placebo Estimate,[20],−0.44
same,KSS Sleepy/Alert LS Mean,[21],3.24
same,KSS Sleepy/Alert LS Mean Difference vs Placebo Estimate,[21],−3.61
same,KSS Sleepy/Alert LS Mean,[22],3.85
same,KSS Sleepy/Alert LS Mean Difference vs Placebo Estimate,[22],−4.30
same,KSS Sleepy/Alert LS Mean,[23],2.51
same,KSS Sleepy/Alert LS Mean Difference vs Placebo Estimate,[23],−0.29
same,KSS Sleepy/Alert LS Mean,[24],5.18
same,KSS Sleepy/Alert LS Mean Difference vs Placebo Estimate,[24],−3.32
same,KSS Sleepy/Alert LS Mean,[25],6.07
same,KSS Sleepy/Alert LS Mean Difference vs Placebo Estimate,[25],−2.26
same,KSS Sleepy/Alert LS Mean,[26],2.51
same,KSS Sleepy/Alert LS Mean Difference vs Placebo Estimate,[26],0.01
same,KSS Sleepy/Alert LS Mean,[27],3.29
same,KSS Sleepy/Alert LS Mean Difference vs Placebo Estimate,[27],0.24
same,KSS Sleepy/Alert LS Mean,"HD: Compound A 112 mg, AVERAGE POST INFUSION START (2.75, 4.75, 6.75 AND 8.75 HOURS)",4.58
same,KSS Sleepy/Alert LS Mean,"HD: Compound A 112 mg, AVERAGE PRIOR TO INFUSION START (14, 10, 6, 2 HOURS PREDOSE)",2.95
same,KSS Sleepy/Alert LS Mean,[28],1.64
same,KSS Sleepy/Alert LS Mean Difference vs Placebo Estimate,[28],−3.26
same,KSS Sleepy/Alert LS Mean,[29],8.46
same,KSS Sleepy/Alert LS Mean Difference vs Placebo Estimate,[29],0.31
same,KSS Sleepy/Alert LS Mean,[30],4.01
same,KSS Sleepy/Alert LS Mean Difference vs Placebo Estimate,[30],0.11
same,KSS Sleepy/Alert LS Mean,[31],4.85
same,KSS Sleepy/Alert LS Mean Difference vs Placebo Estimate,[31],−2.00
same,KSS Sleepy/Alert LS Mean,[32],6.46
same,KSS Sleepy/Alert LS Mean Difference vs Placebo Estimate,[32],−1.69
same,KSS Sleepy/Alert LS Mean,[33],2.79
same,KSS Sleepy/Alert LS Mean Difference vs Placebo Estimate,[33],−0.01
same,KSS Sleepy/Alert LS Mean,[34],7.79
same,KSS Sleepy/Alert LS Mean Difference vs Placebo Estimate,[34],−0.71
same,KSS Sleepy/Alert LS Mean,[35],8.07
same,KSS Sleepy/Alert LS Mean Difference vs Placebo Estimate,[35],−0.26
same,KSS Sleepy/Alert LS Mean,[36],2.79
same,KSS Sleepy/Alert LS Mean Difference vs Placebo Estimate,[36],0.29
same,KSS Sleepy/Alert LS Mean,[37],2.85
same,KSS Sleepy/Alert LS Mean Difference vs Placebo Estimate,[37],−0.20
same,KSS Sleepy/Alert LS Mean,"LD: Compound A 44 mg, AVERAGE POST INFUSION START (2.75, 4.75, 6.75 AND 8.75 HOURS)",6.79
same,KSS Sleepy/Alert LS Mean,"LD: Compound A 44 mg, AVERAGE PRIOR TO INFUSION START (14, 10, 6, 2 HOURS PREDOSE)",3.11
same,KSS Sleepy/Alert LS Mean,[38],3.68
same,KSS Sleepy/Alert LS Mean Difference vs Placebo Estimate,[38],−1.22
